Laboratory results from article PMC9501810, “Bitter Peptides YFYPEL, [sequence], and [sequence], Released during Gastric Digestion of Casein, Stimulate Mechanisms of Gastric Acid Secretion via Bitter Taste Receptors TAS2R16 and TAS2R38” (Journal of Agricultural and Food Chemistry, 2022).
Where “and” joins values, the source holds several entries; their conditions need not be identical. Identical values can stand only once.

Assays:
Type in all cases: cell-based, human
[1] = system: HGT-1 cells; assay: Proton secretion assay (intracellular proton index IPX, SNARF-1-AM); conditions: for ΔIPX (change in intracellular proton index vs untreated cells): 10 min incubation in KRHB, n = 4–8; for ΔIPX (change in intracellular proton index vs untreated cells) / ΔIPX on co-incubation with probenecid: mean ± SEM; for proton secretion with peptide alone compared to untreated control cells: VAPFPEVF 17.5 µM, YFYPEL 0.03 µM, YQEPVLGPVRGPFPIIV 0.4 µM, p < 0.01; for proton secretion with peptide alone compared to untreated control cells / ΔIPX on co-incubation with probenecid: 10 min; for concentration with the lowest IPX value (minimum of curve fit; highest impact on secretory activity): curve fit over 0.01–200 µM proton secretion profile; for ΔIPX on co-incubation with probenecid: peptide (VAPFPEVF 17.5 µM, YFYPEL 0.03 µM, YQEPVLGPVRGPFPIIV 0.4 µM) + 1 mM probenecid, vs untreated cells
Description: (§1) The measurement of proton secretion from HGT-1 cells represents a well-established model for the identification of bitter compounds. By affecting extraoral bitter taste receptors with bitter compounds, a modulatory effect on proton secretion can be measured. For this purpose, cells were washed with KRHB and incubated with 3 μM of the intracellular pH indicator 1,5 carboxy-seminaphto-rhodafluor acetoxymethyl ester (SNARF-1-AM) under standard conditions. After 30 min, the cells were washed again with KRHB and then incubated with casein (0.01–10 μM equimolar related to the relevant forms αS1- and β-casein), hydrolysate (0.01–10 μM), or the peptides (0.01–200 μM). […] All substances were dissolved and diluted in KRHB. 1 mM histamine was used as a positive control. Measurements were performed using FlexStation 3 (Molecular Devices, USA). The excitation wavelength was 488 nm, and the emission wavelengths were 580 and 640 nm. For calibration (pH range 7.0–8.0), the intracellular and extracellular pH was adjusted with 2 μM nigericin in potassium buffer (20 mM NaCl, 110 mM KCl, 1 mM CaCl2, 1 mM MgSO4, 18 mM D-glucose, and 20 mM HEPES). The intracellular proton index (IPX) was calculated as the log2 value of the 580/640 ratio and compared with cells without treatment. Negative values represent increased secretion of protons and therefore stimulation of mechanisms regulating gastric acid secretion in HGT-1 cells. In contrast, positive values represent an inhibition of secretion compared to the untreated control.

[2] = system: TAS2R38; assay: Proton secretion assay in TAS2R38 knock-down vs mock-transfected HGT-1 cells; conditions: TAS2R38kd vs mock-transfected HGT-1 cells, VAPFPEVF 17.5 µM, YFYPEL 0.03 µM, YQEPVLGPVRGPFPIIV 0.4 µM, 10 min, mean ± SEM; for reduction of the peptide-induced stimulation of proton secretion in TAS2R38kd cells: 72 h after 1 nM siRNA; for change of peptide-induced proton secretion, TAS2R38kd (in Figure 5E–G): negative = reduction
Description: as §1
Expression of TAS2R16 and TAS2R38 was reduced by treatment of HGT-1 cells with siRNA. 100,000 cells per well were seeded 1 day before the experiment into a 24-well plate. All reagents and siRNA were purchased from Thermo Fisher Scientific, USA (cytotoxicity was excluded by MTT). Transfection was performed with Lipofectamine RNAiMAX in Opti-Medium according to the manufacturer’s protocol. 1–50 nM of different siRNA sequences (HSS121396 and HSS181763 for TAS2R16 and HSS108754 and HSS108756 for TAS2R38) and three different incubation times (24, 48, and 72 h) were tested. Mock control experiments were performed analogously with 1 or 10 nM Stealth RNAi siRNA negative control. To verify the functionality of the transfection process, verified 10 nM siRNA targeting MAPK1 (VHS40312) was used (positive control). The transfection rate was checked by qPCR as described in section 2.11. For the proton secretion assays, 20,000 cells per well were seeded 1 day before transfection into a black 96-well plate. After 72 h of transfection, proton secretion activities of TAS2R16 knock-down or TAS2R38 knock-down HGT-1 were compared with the mock transfected cells by means of ΔIPX.

[3] = system: TAS2R7; assay: RT-qPCR gene expression of TAS2R7 in HGT-1 cells; conditions: VAPFPEVF 17.5 µM, YFYPEL 0.03 µM, YQEPVLGPVRGPFPIIV 0.4 µM, normalized to PPIA and GAPDH and untreated cells, mean, n = 3–5
Description: (§2) For mRNA expression analysis, 800,000 cells were seeded in a T25 cell culture flask (25 cm^2) 1 day before the experiment. After incubation with 17.5 μM […], 0.03 μM YFYPEL, or 0.4 μM […] for 15, 30, 60, and 120 min, RNA was isolated using the peqGOLD RNA Kit (VWR Peqlab, USA) following the manufacturer’s protocol. Determination of RNA concentration (A260/A280 between 2.03 and 2.09) was performed on a NanoDrop One^c (Thermo Fisher Scientific Inc., USA). RNA integrity number (RIN 9.9–10.0, version 2.6, assay class Eukaryote Total RNA Nano) was analyzed using a 2100 Bioanalyzer (Agilent Technologies, USA). Removal of gDNA and synthesis of cDNA were performed using the iScript gDNA Clear cDNA Synthesis Kit (BioRad, Feldkirchen, Germany) following the manufacturer’s protocol. Real-time-qPCR (RT-qPCR) was performed with 50 ng cDNA amplified with SsoAdvanced Universal SYBR Green Supermix (Bio-Rad Laboratories, Inc., USA). The sequences of the forward and reverse primers of the 25 TAS2Rs were taken from Liszt et al.([13]) (Supporting Information Table-SI 3). Verified primers for the TAS1Rs (TAS1R1: qHsaCID0013443; TAS1R2: qHsaCID0016106; TAS1R3: qHsaCED0002321) and for MAPK1 (qHsaCEP0050000) were obtained from Bio-Rad Laboratories. PPIA[37] and GAPDH[38] were used as reference genes. The effects of the peptides on gene expression were analyzed in comparison to untreated control cells.

[4] = system: TAS2R10; assay: RT-qPCR gene expression of TAS2R10 in HGT-1 cells; conditions: VAPFPEVF 17.5 µM, YFYPEL 0.03 µM, YQEPVLGPVRGPFPIIV 0.4 µM, normalized to PPIA and GAPDH and untreated cells, mean, n = 3–5
Description: as §2

[5] = 0.1 µM, IPX = log2 of 580/640 ratio, negative = stimulated proton secretion

Row | Substance | ΔIPX (change in intracellular proton index vs untreated cells) ([1]; 10 µM, negative = stimulated, positive = inhibited proton secretion) | proton secretion with peptide alone compared to untreated control cells [1] | concentration with the lowest IPX value (minimum of curve fit; highest impact on secretory activity) [1] | ΔIPX on co-incubation with probenecid [1] | reduction of the peptide-induced stimulation of proton secretion in TAS2R38kd cells [2] | change of peptide-induced proton secretion, TAS2R38kd (in Figure 5E–G) [2] | change in gene expression of TAS2R7 ([3]; incubation 15 min) | change in gene expression of TAS2R7 ([3]; incubation 30 min) | change in gene expression of TAS2R7 ([3]; incubation 60 min) | change in gene expression of TAS2R7 ([3]; incubation 120 min) | change in gene expression of TAS2R10 ([4]; incubation 15 min) | change in gene expression of TAS2R10 ([4]; incubation 30 min) | change in gene expression of TAS2R10 ([4]; incubation 60 min) | change in gene expression of TAS2R10 ([4]; incubation 120 min) | ΔIPX (change in intracellular proton index vs untreated cells) [1, 5]
1 | VAPFPEVF [bitter casein peptide αS1-CN25–32] | −0.286 ± 0.037 | increased proton secretion | 17.5 µM | +0.043 ± 0.031 | 37.5 ± 9.8% | -37.5 ±9.8% | 1.20 fold change | 0.71 fold change | 1.05 fold change | 0.62 fold change | 0.34 fold change and 0.34 ± 0.05 fold change | 0.76 fold change | 0.91 fold change | 1.15 fold change | 
2 | YFYPEL [bitter casein peptide αS1-CN144–149] |  | increased proton secretion | 0.03 µM | −0.001 ± 0.019 | 62.8 ± 7.0% | -62.8 ±7.0% | 1.23 fold change | 2.50 fold change | 6.71 fold change and 6.71 ± 1.56 fold change | 1.18 fold change | 0.64 fold change | 0.41 fold change and 0.41 ± 0.05 fold change | 0.72 fold change | 0.90 fold change | −0.253 ± 0.027
3 | YQEPVLGPVRGPFPIIV [bitter casein peptide βA1/A2-CN193–209] |  | increased proton secretion | 0.4 µM | −0.020 ± 0.036 | 45.2 ± 6.7% | -45.2 ±6.7% | 0.49 fold change | 0.74 fold change | 0.70 fold change | 1.82 fold change | 0.52 fold change and 0.52 ± 0.06 fold change | 0.78 fold change | 0.90 fold change | 1.04 fold change | −0.203 ± 0.048
